# US8445405B2, “Synergistic herbicidal compositions containing aminopyralid, 2,4-dichlorophenoxyacetic acid and atrazine” (Dow AgroSciences, LLC., priority 2010, dated 2013)
# Tests used:
# [1] = system: redroot pigweed (Amaranthus retroflexus, AMARE); assay: Field trial, post-emergence weed control in corn (Jalisco, Mexico), visual rating; format: in vivo
# Description: (§1) These trials were conducted under normal corn crop conditions. Trial sites were located in commercially grown corn in the Jalisco (Mexico) area. The corn crop was grown using normal cultural practices for fertilization, seeding, and maintenance to ensure good growth of the crop and the weeds. The trials were conducted using normal research methodology. Trial plots were between 6 to 7 meters (m) wide by 10 m long. All treatments were applied using a randomized complete block trial design with 3 or 4 replications per treatment. The trial sites had naturally occurring populations of weeds. The weed spectrum included, but was not limited to, redroot pigweed (Amaranthus retroflexus, AMARE), bur-cucumber (Sicyos angulatus, SIYAN). Treatments consisted of tank mixes of Tronador™ herbicide and atrazine applied in water. The application volumes were between 250 to 300 liters per hectare (L/ha). All applications were made using precision gas hand sprayers using a 3 m boom using flat fan 8002 nozzles to broadcast the treatments on the weeds.
# (§2) The treated plots and control plots were rated blind at various intervals after application. Ratings were based on Percent (%) Visual weed control, where 0 corresponds to no injury and 100 corresponds to complete kill.
# (§3) Colby's equation was used to determine the herbicidal effects expected from the mixtures (Colby, S. R. Weeds 1967, 15, 20-22. Calculation of the synergistic and antagonistic response of herbicide combinations).
# (§4) The following equation was used to calculate the expected activity of mixtures containing two active ingredients, A and B: Expected=A+B−(A×B/100)
# (§5) A=observed efficacy of active ingredient A at the same concentration as used in the mixture.
# (§6) B=observed efficacy of active ingredient B at the same concentration as used in the mixture.
# [2] = system: bur-cucumber (Sicyos angulatus, SIYAN); assay: as above; format: in vivo
# Description: as §1, §2, §3, §4, §5, §6
# [3] = 15 days after application, Atrazine 450 g ai/ha
# [4] = 15 days after application, Atrazine 900 g ai/ha
# [5] = 30 days after application, Atrazine 450 g ai/ha
# [6] = 30 days after application, Atrazine 900 g ai/ha
# [7] = 45 days after application, Atrazine 450 g ai/ha
# [8] = 45 days after application, Atrazine 900 g ai/ha
# [9] = 60 days after application, Atrazine 450 g ai/ha
# [10] = 60 days after application, Atrazine 900 g ai/ha
structure (smiles),measurement,setting,value
"CCNc1nc(Cl)nc(NC(C)C)n1 [Atrazine, 6-chloro-N-ethyl-N′-(1-methylethyl)-1,3,5-triazine-2,4-diamine]",AMARE Obs - Percent control observed,[1]; [3],35%
same,AMARE Obs - Percent control observed,[1]; [4],46.3%
same,AMARE Obs - Percent control observed,[1]; [5],77.5%
same,AMARE Obs - Percent control observed,[1]; [6],82.5%
same,AMARE Obs - Percent control observed,[1]; [7],91.3%
same,AMARE Obs - Percent control observed,[1]; [8],94.8%
same,AMARE Obs - Percent control observed,[1]; [9],91.3%
same,AMARE Obs - Percent control observed,[1]; [10],97%
same,SIYAN Obs - Percent control observed,[2]; [3],27.5%
same,SIYAN Obs - Percent control observed,[2]; [4],42.5%
same,SIYAN Obs - Percent control observed,[2]; [5],36.3%
same,SIYAN Obs - Percent control observed,[2]; [6],60%
same,SIYAN Obs - Percent control observed,[2]; [7],56.3%
same,SIYAN Obs - Percent control observed,[2]; [8],66.3%
same,SIYAN Obs - Percent control observed,[2]; [9],53.8%
same,SIYAN Obs - Percent control observed,[2]; [10],65%
